Assay results from patent publication US20240011027A1, “METHODS AND COMPOSITIONS FOR RESTORING STMN2 LEVELS” (President and Fellows of Harvard College, priority 2020, published 2024).

Key:
Type in all cases: cell-based, human
[1] = tested on: STMN2; experiment: STMN2 multiplexed qPCR assay in neurons after TDP-43 reduction by ASO or siRNA; conditions: compared with SCR ASO
Text: FIGS. 17A-17C show RNA can be readily collected from CSF-derived exosomes and then converted into cDNA to assay for full and cryptic STMN2 transcripts as well as control RNAs for normalization (FIG. 17A). […] STMN2 transcripts are normalized to the house keeping ribosomal subunit RNA18S5. TDP-43 levels were reduced in cultured human neurons using either an antisense oligonucleotide (ASO) to deplete cells of TDP-43 or an siRNAs to induce TDP-43 knockdown. […] Using the validated multiplexed qPCR assay, next RNA was isolated from CSF-derived exosomes using 300 ul patient samples to determine the levels of cryptic STMN2 (n=7 healthy controls, n=2 disease mimics and n=9 ALS patients). […] Note that even in this modest set of samples that the increase in cryptic exon expression in ALS patients was highly significant (P<0.005). […] Finally, there is an interesting “texture” to the patient data with some patients showing high levels of expression and others more normal levels. It is hypothesized that patients with lower levels may either be earlier in their disease or have non-TDP-43 disease.

[2] = tested on: patient's motor neurons; experiment: axonal regrowth after axotomy in microfluidic devices, TDP-43 depleted patient's motor neurons; conditions: for axon extension from the microchannel (regrowth after injury), mean values / axonal regrowth after injury relative to the non-targeting control ASO: patient's motor neurons treated with siTARDBP, 18 hours after axotomy; for neurite outgrowth deficits following TDP-43 depletion: FIG. 92
Experimental: Sorted motor neurons were cultured in standard neuron microfluidic devices (SND150, XONA Microfluidics) mounted on glass coverslips coated with 0.1 mg/ml poly-D-lysine (Sigma-Aldrich) and 5 μg/ml laminin (Invitrogen) at a concentration of around 250,000 neurons/device. Axotomy was performed at day 7 of culture by repeated vacuum aspiration and reperfusion of the axon chamber until axons were cut effectively without disturbing cell bodies in the soma compartment.
To test if ASO SJ+94 could rescue axonal regrowth after TDP-43 depletion and injury, the patient's motor neurons were cultured in microfluidic devices that permitted axon growth into a chamber distinct from the neuronal cell bodies (FIG. 91A). Neurons cultured for 7 days in the soma compartment of the device extended axons through the microchannels into the axon chamber. Neurons were treated with siTARDBP and ASO SJ+94 before severing axons without disturbing cell bodies in the soma compartment. The axon extension was then measured from the microchannel to assess regrowth after injury (FIG. 91B, FIG. 91D).

[3] = tested on: hMNs; experiment: neurite outgrowth, Sholl analysis of hMNs; conditions: 10 μM; STMN2+/+ and STMN2−/− hMNs
Experimental: Given the reported role of STMN2 in regulating axonal growth by promoting the dynamic instability of microtubules (77), phenotypic assays were carried out characterizing neurite outgrowth in the STMN2−/− hMNs. After 7 days in culture, sorted hMNs were fixed and stained for β-III-tubulin to label the neuronal processes (FIG. 4E).
Individual Tuj1-positive neurons used for Sholl analyses were randomly selected and imaged using a Nikon Eclipse TE300 with a 40× objective. The neurites were traced using the ImageJ (NIH) plugin NeuronJ (78), and Sholl analysis was performed using the Sholl tool of Fiji (96), quantifying the number of intersections at intervals from the cell body. Statistical analysis was performed by comparing the number of intersections of KO clones with the parental WT line for each 10 μm interval using Prism 6 (Graph Pad, La Jolla, CA, USA). Significance was assessed by a standard Student's t-test, with a p value of p<0.05 considered as significant.

[4] = tested on: STMN2 cryptic exon; experiment: RT-PCR detection of transcripts containing the STMN2 cryptic exon in hMNs treated with proteasome inhibitors
Experimental: It was then asked if cryptic exon inclusion could be contributing to decreased STMN2 levels in hMNs after proteasome inhibition. To accomplish this goal, an RT-PCR assay was developed to detect transcripts containing the cryptic exon (FIG. 5F). […] Total RNA was isolated from neurons using RNeasy Mini Kit (Qiagen) according to manufacturer's instructions. A total of 300-1000 ng of total RNA was used to synthesize cDNA by reverse transcription according to the iSCRIPT kit (Bio-rad). RT-PCR was then performed using one cryptic exon-specific primer and then analyzed using the Agilent 2200 Tapestation.

[5] = tested on: STMN2 transcript; experiment: qRT-PCR of truncated (cryptic) and full-length STMN2 RNA in patient's motor neurons treated with siTARDBP and ASOs; conditions: for STMN2 in TDP-43 depleted neurons: FIG. 93; for cry STMN2 in TDP-43 depleted neurons: FIG. 94; for cryptic STMN2 RNA levels (cryptic splicing) / full-length STMN2 RNA levels: patient's motor neurons treated with siTARDBP, ASO 30 nM to 0.03 nM, qRT-PCR normalized using RNA18S5, relative to NTC
Experimental: In total, 51 ASOs were screened in the patient's motor neurons for their ability to (1) suppress the generation of truncated STMN2 transcript as well as (2) restore the full-length STMN2 transcript.
In the first experiment the patient's motor neurons were treated with siTARDBP, the patient's motor neurons were then cultured with the various ASOs over a range of concentrations (ranging from 30 nM to 0.03 nM) before extracting total RNA. Extracted RNA was used to synthesize cDNA by reverse transcription. qRT-PCR was used to assess levels for both truncated and full-length STMN2 RNAs normalized using RNA18S5 expression.

[6] = tested on: STMN2 protein; experiment: immunoblot of STMN2 protein levels in patient's motor neurons following reduction of TDP-43 by siRNA; conditions: patient's motor neurons after TDP-43 reduction by siRNA; compared to NTC / siRNA controls
Experimental: For analysis of TDP-43 and STMN2 protein expression levels, d10 MNs were lysed in RIPA buffer (150 mM Sodium Chloride; 1% Triton X-100; 0.5% sodium deoxycholate; 0.1% SDS; 50 mM Tris pH 8.0) containing protease and phosphatase inhibitors (Roche) for 20 min on ice, and centrifuged at high speed. 200 μL of RIPA buffer per well of 24-well culture were routinely used, which yielded ˜20 μg of total protein as determined by BCA (Thermo Scientific). After two washes with RIPA buffer, insoluble pellets were resuspended in 200 μl of UREA buffer (Bio-Rad). For immunoblot assays 2-3 μg of total protein were separated by SDS-PAGE (BioRad), transferred to PDVF membranes (BioRad) and probed with antibodies against TDP-43 (1:1000, ProteinTech Group), GAPDH (1:1000, Millipore) and STMN2 (1:3000, Novus). Insoluble pellets were loaded based on protein concentration of correspondent RIPA-soluble counterparts. The same PDVF membrane was immunoassayed 2-3 times using Restore™ PLUS Western Blot Stripping Buffer (Thermo Scientific). GAPDH levels were used to normalized each sample, and LiCor software was used to quantitate protein band signal.
After establishing and validating that the STMN2 ASOs could affect transcript levels, it was sought to determine if they could also rescue diminished protein levels observed after TDP-43 reduction. The patient's motor neurons were treated with siRNAs and either a nontargeting ASO (NTC) or one of the lead compounds from the screen (FIG. 90, FIG. 97). […] Unlike the cells treated with the non-targeting control ASO (NTC), restoration of STMN2 to the levels of the siRNA controls for the lead candidates was observed.

[7] = tested on: STMN2 RNA; experiment: qRT-PCR of full-length STMN2 after proteasome inhibition with MG-132 in patient's motor neurons; conditions: patient's motor neurons; MG-132 (1 uM)
Text: It was established that ASO (SJ+94) and ASO (SJ-1) suppressed cryptic splicing of STMN2 and restored full length STMN2 RNA in the patient's motor neurons when there is a reduction in nuclear TDP-43. […] Post-mortem tissue studies have shown that TDP-43 mis-localization and its aggregation in cytoplasm is a hallmark of sporadic ALS. Several groups have reported cytoplasmic aggregation of TDP-43 akin to that observed in post-mortem tissue of sporadic ALS patients occurs in response to pharmacological inhibition of the proteasome (1, 4).

## TDP-43 ASO: antisense oligonucleotide to deplete cells of TDP-43, AAGGCTTCATATTGTACTTT (chemistry not given here)
[1]
  relative expression of STMN2 (Exons 3-4): STMN2 reduction
  relative expression of cryptic STMN2: cryptic exon induction

## NTC: non-targeting control ASO CCTATAGGACTATCCAGGAA (chemistry not given here) [reference compound]
[2]
  axon extension from the microchannel (regrowth after injury), mean values: 176 um

## C[C@@H](N)[C@H]1CC[C@H](C(=O)Nc2ccncc2)CC1 [Y-27632]
[3]
  neurite outgrowth (Sholl analysis): enhancing the outgrowth of the STMN^+/+ line but not the STMN^−/− line

## CC(C)C[C@H](NC(=O)[C@H](Cc1ccccc1)NC(=O)c1cnccn1)B(O)O [Bortezomib]
[4]
  transcripts containing the STMN2 cryptic exon (PCR assay): presence of transcripts containing the STMN2 cryptic exon

## SJ-1: antisense oligonucleotide AGGTCTTCTGCCGAGTC C, fully modified with MOE sugars and phosphorothioate linkages (antisense AGGTCTTCTGCCGAGTCC; all 2'-MOE, all phosphorothioate, methylation of C not given here)
[5]
  STMN2 in TDP-43 depleted neurons: restored
  cry STMN2 in TDP-43 depleted neurons: reduced
  cryptic STMN2 RNA levels (cryptic splicing): suppressing cryptic splicing
  full-length STMN2 RNA levels: restoring full length STMN2 RNA
[6]
  STMN2 protein levels: increase is significant
[7]
  full-length STMN2 RNA levels, higher than non-targeting control ASO (NTC): 30%
[2]
  neurite outgrowth deficits following TDP-43 depletion: rescued
  axon extension from the microchannel (regrowth after injury), mean values: 243 um
  axonal regrowth after injury relative to the non-targeting control ASO: significantly increased regrowth

## SJ+94: antisense oligonucleotide CATTTCTTCTTAGGCAGGCT, fully modified with MOE sugars and phosphorothioate linkages (all 2'-MOE, all phosphorothioate, methylation of C not given here)
[5]
  STMN2 in TDP-43 depleted neurons: restored
  cry STMN2 in TDP-43 depleted neurons: reduced
  cryptic STMN2 RNA levels (cryptic splicing): suppress cryptic splicing
  full-length STMN2 RNA levels: restore full length STMN2 RNA
[6]
  STMN2 protein levels: increase is significant
[7]
  full length STMN2 RNA levels compared to non-targeting control ASO (NTC): significantly higher levels of full length STMN2 RNA
[2]
  neurite outgrowth deficits following TDP-43 depletion: rescued
  axonal regrowth after injury relative to the non-targeting control ASO: significantly increased regrowth

## SJ+101: antisense oligonucleotide TTCACATTCATTTCTTCTTAG, fully modified with MOE sugars and phosphorothioate linkages (all 2'-MOE, all phosphorothioate, methylation of C not given here)
[5]
  STMN2 in TDP-43 depleted neurons: restored
  cry STMN2 in TDP-43 depleted neurons: reduced
[6]
  STMN2 protein levels: increase is significant
[2]
  neurite outgrowth deficits following TDP-43 depletion: rescued
